According to patent US20130274174A1, “THERAPEUTIC COMBINATION OF DAPTOMYCIN AND PROTEIN SYNTHESIS INHIBITOR ANTIBIOTIC, AND METHODS OF USE” (priority 2011, published 2013):
In brackets after ≈: the same amount, converted by molar mass. Where two headings read alike, the source gives them in different places.

Key:
S. aureus MW2 (NRS123) = assay: microbe, parasite or virus in culture; type: cell-based, Staphylococcus aureus; conditions: for MIC: Staphylococcus aureus
Procedure, shortened: (§1)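 MW2 passaged on cation-adjusted Mueller-Hinton II agar with ¼ MIC of TR-700, TR-705, LZD, TIA, CLI, TET, VAN or TMP/SMX plus a linear DAP gradient; ATCC 33591 with ¼ MIC TR-700, TMP/SMX or VAN; DAP-only controls.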

S. aureus ATCC 33591 = assay: microbe, parasite or virus in culture; type: cell-based, Staphylococcus aureus; conditions: Staphylococcus aureus
Procedure, shortened: as §1

`CN[C@H](CC(C)C)C(=O)N[C@H]1C(=O)N[C@@H](CC(N)=O)C(=O)N[C@H]2C(=O)N[C@H]3C(=O)N[C@H](C(=O)N[C@H](C(=O)O)c4cc(O)cc(O)c4-c4cc3ccc4O)[C@H](O)c3ccc(c(Cl)c3)Oc3cc2cc(c3O[C@@H]2O[C@H](CO)[C@@H](O)[C@H](O)[C@H]2O[C@H]2C[C@](C)(N)[C@H](O)[C@H](C)O2)Oc2ccc(cc2Cl)[C@H]1O` [VAN, vancomycin] gave an MIC (S. aureus MW2 (NRS123); NRS123, passage 0, NRS123 WT) of 1 µg/mL (≈ 0.69 µM), an MIC (S. aureus MW2 (NRS123); NRS123, passage 5, selection group DAP) of 2 µg/mL (≈ 1.38 µM) and an MIC (S. aureus MW2 (NRS123); NRS123, passage 5, selection group DAP + CLI) of 4 µg/mL. The MIC (S. aureus MW2 (NRS123); NRS123, passage 5, selection group DAP + LZD) was 4 µg/mL, the MIC (S. aureus MW2 (NRS123); NRS123, passage 5, selection group DAP + TET) was 2 µg/mL and the MIC (S. aureus MW2 (NRS123); NRS123, passage 5, selection group DAP + TIA) was 2 µg/mL. For the same molecule, the MIC (S. aureus MW2 (NRS123); NRS123, passage 5, selection group DAP + TMP/SMX) was 8 µg/mL, the MIC (S. aureus MW2 (NRS123); NRS123, passage 5, selection group DAP + TR-700) was 2 µg/mL and the MIC (S. aureus MW2 (NRS123); NRS123, passage 5, selection group DAP + TR-705) was 4 µg/mL. For the same molecule, the MIC (S. aureus MW2 (NRS123); NRS123, passage 5, selection group DAP + VAN) was 4 µg/mL, the MIC (S. aureus MW2 (NRS123); NRS123, passage 10, selection group DAP) was 4 µg/mL (≈ 2.76 µM) and the MIC (S. aureus MW2 (NRS123); NRS123, passage 10, selection group DAP + CLI) was 4 µg/mL. The MIC (S. aureus MW2 (NRS123); NRS123, passage 10, selection group DAP + LZD) was 8 µg/mL, the MIC (S. aureus MW2 (NRS123); NRS123, passage 10, selection group DAP + TET) was 2 µg/mL and the MIC (S. aureus MW2 (NRS123); NRS123, passage 10, selection group DAP + TIA) was 4 µg/mL. The MIC (S. aureus MW2 (NRS123); NRS123, passage 10, selection group DAP + TMP/SMX) was 8 µg/mL, the MIC (S. aureus MW2 (NRS123); NRS123, passage 10, selection group DAP + TR-700) was 2 µg/mL and the MIC (S. aureus MW2 (NRS123); NRS123, passage 10, selection group DAP + TR-705) was 2 µg/mL. It also gave an MIC (S. aureus MW2 (NRS123); NRS123, passage 10, selection group DAP + VAN) of 4 µg/mL, an MIC (S. aureus MW2 (NRS123); NRS123, passage 15, selection group DAP) of 8 µg/mL (≈ 5.52 µM) and an MIC (S. aureus MW2 (NRS123); NRS123, passage 15, selection group DAP + CLI) of 8 µg/mL. For the same molecule, the MIC (S. aureus MW2 (NRS123); NRS123, passage 15, selection group DAP + LZD) was 8 µg/mL, the MIC (S. aureus MW2 (NRS123); NRS123, passage 15, selection group DAP + TET) was 0.5 µg/mL and the MIC (S. aureus MW2 (NRS123); NRS123, passage 15, selection group DAP + TIA) was 4 µg/mL. It also gave an MIC (S. aureus MW2 (NRS123); NRS123, passage 15, selection group DAP + TMP/SMX) of 8 µg/mL, an MIC (S. aureus MW2 (NRS123); NRS123, passage 15, selection group DAP + TR-700) of 2 µg/mL and an MIC (S. aureus MW2 (NRS123); NRS123, passage 15, selection group DAP + TR-705) of 2 µg/mL. The MIC (S. aureus MW2 (NRS123); NRS123, passage 15, selection group DAP + VAN) was 8 µg/mL, the MIC (S. aureus MW2 (NRS123); NRS123, passage 20, selection group DAP) was 8 µg/mL (≈ 5.52 µM) and the MIC (S. aureus MW2 (NRS123); NRS123, passage 20, selection group DAP + CLI) was 8 µg/mL. For the same molecule, the MIC (S. aureus MW2 (NRS123); NRS123, passage 20, selection group DAP + LZD) was 8 µg/mL, the MIC (S. aureus MW2 (NRS123); NRS123, passage 20, selection group DAP + TET) was 1 µg/mL and the MIC (S. aureus MW2 (NRS123); NRS123, passage 20, selection group DAP + TIA) was 4 µg/mL. The MIC (S. aureus MW2 (NRS123); NRS123, passage 20, selection group DAP + TMP/SMX) was 8 µg/mL, the MIC (S. aureus MW2 (NRS123); NRS123, passage 20, selection group DAP + TR-700) was 2 µg/mL and the MIC (S. aureus MW2 (NRS123); NRS123, passage 20, selection group DAP + TR-705) was 2 µg/mL. For the same molecule, the MIC (S. aureus MW2 (NRS123); NRS123, passage 20, selection group DAP + VAN) was 8 µg/mL, the MIC (S. aureus MW2 (NRS123); NRS123, passage 25, selection group DAP) was 4 µg/mL (≈ 2.76 µM) and the MIC (S. aureus MW2 (NRS123); NRS123, passage 25, selection group DAP + CLI) was 8 µg/mL. It also gave an MIC (S. aureus MW2 (NRS123); NRS123, passage 25, selection group DAP + LZD) of 8 µg/mL, an MIC (S. aureus MW2 (NRS123); NRS123, passage 25, selection group DAP + TET) of 1 µg/mL and an MIC (S. aureus MW2 (NRS123); NRS123, passage 25, selection group DAP + TIA) of 2 µg/mL. The MIC (S. aureus MW2 (NRS123); NRS123, passage 25, selection group DAP + TMP/SMX) was 8 µg/mL, the MIC (S. aureus MW2 (NRS123); NRS123, passage 25, selection group DAP + TR-700) was 2 µg/mL and the MIC (S. aureus MW2 (NRS123); NRS123, passage 25, selection group DAP + TR-705) was 2 µg/mL. For the same molecule, the MIC (S. aureus MW2 (NRS123); NRS123, passage 25, selection group DAP + VAN) was 8 µg/mL, the MIC (S. aureus MW2 (NRS123); NRS123, passage 30, selection group DAP) was 2 µg/mL (≈ 1.38 µM) and the MIC (S. aureus MW2 (NRS123); NRS123, passage 30, selection group DAP + CLI) was 8 µg/mL. It also gave an MIC (S. aureus MW2 (NRS123); NRS123, passage 30, selection group DAP + LZD) of 2 µg/mL, an MIC (S. aureus MW2 (NRS123); NRS123, passage 30, selection group DAP + TET) of 1 µg/mL and an MIC (S. aureus MW2 (NRS123); NRS123, passage 30, selection group DAP + TIA) of 4 µg/mL. The MIC (S. aureus MW2 (NRS123); NRS123, passage 30, selection group DAP + TMP/SMX) was 8 µg/mL, the MIC (S. aureus MW2 (NRS123); NRS123, passage 30, selection group DAP + TR-700) was 2 µg/mL and the MIC (S. aureus MW2 (NRS123); NRS123, passage 30, selection group DAP + TR-705) was 2 µg/mL. For the same molecule, the MIC (S. aureus MW2 (NRS123); NRS123, passage 30, selection group DAP + VAN) was 4 µg/mL, the MIC (S. aureus MW2 (NRS123); NRS123, read-out: DAP MIC by the end of the experiment (selection of DAP^ns strains), MW2, passaged with DAP alone or with co-selecting agent at ¼ MIC, CLSI breakpoint) was over 1 µg/mL and the “effect on preventing the emergence of DAP^ns” value (S. aureus MW2 (NRS123); co-selection at ¼ MIC, VAN: both backgrounds) was “had an effect on preventing the emergence of DAP^ns strains”. For the same molecule, the DAP/VAN cross-resistance (S. aureus MW2 (NRS123); co-selection with VAN, both backgrounds) was “cross-resistance was observed”, the MIC (S. aureus ATCC 33591; ATCC33591, passage 0, ATCC 33591 WT) was 2 µg/mL (≈ 1.38 µM) and the MIC (S. aureus ATCC 33591; ATCC33591, passage 5, selection group DAP) was 4 µg/mL (≈ 2.76 µM). The MIC (S. aureus ATCC 33591; ATCC33591, passage 5, selection group DAP + TMP/SMX) was 4 µg/mL, the MIC (S. aureus ATCC 33591; ATCC33591, passage 5, selection group DAP + TR-700) was 2 µg/mL and the MIC (S. aureus ATCC 33591; ATCC33591, passage 5, selection group DAP + VAN) was 4 µg/mL. The MIC (S. aureus ATCC 33591; ATCC33591, passage 10, selection group DAP) was 4 µg/mL (≈ 2.76 µM), the MIC (S. aureus ATCC 33591; ATCC33591, passage 10, selection group DAP + TMP/SMX) was 8 µg/mL and the MIC (S. aureus ATCC 33591; ATCC33591, passage 10, selection group DAP + TR-700) was 4 µg/mL. It also gave an MIC (S. aureus ATCC 33591; ATCC33591, passage 10, selection group DAP + VAN) of 4 µg/mL, an MIC (S. aureus ATCC 33591; ATCC33591, passage 15, selection group DAP) of 4 µg/mL (≈ 2.76 µM) and an MIC (S. aureus ATCC 33591; ATCC33591, passage 15, selection group DAP + TMP/SMX) of 4 µg/mL. The MIC (S. aureus ATCC 33591; ATCC33591, passage 15, selection group DAP + TR-700) was 4 µg/mL, the MIC (S. aureus ATCC 33591; ATCC33591, passage 15, selection group DAP + VAN) was 4 µg/mL and the MIC (S. aureus ATCC 33591; ATCC33591, passage 20, selection group DAP) was 4 µg/mL (≈ 2.76 µM). For the same molecule, the MIC (S. aureus ATCC 33591; ATCC33591, passage 20, selection group DAP + TMP/SMX) was 4 µg/mL, the MIC (S. aureus ATCC 33591; ATCC33591, passage 20, selection group DAP + TR-700) was 4 µg/mL and the MIC (S. aureus ATCC 33591; ATCC33591, passage 20, selection group DAP + VAN) was 8 µg/mL. The MIC (S. aureus ATCC 33591; ATCC33591, passage 25, selection group DAP) was 4 µg/mL (≈ 2.76 µM), the MIC (S. aureus ATCC 33591; ATCC33591, passage 25, selection group DAP + TMP/SMX) was 4 µg/mL and the MIC (S. aureus ATCC 33591; ATCC33591, passage 25, selection group DAP + TR-700) was 4 µg/mL. It also gave an MIC (S. aureus ATCC 33591; ATCC33591, passage 25, selection group DAP + VAN) of 8 µg/mL, an MIC (S. aureus ATCC 33591; ATCC33591, passage 30, selection group DAP) of 4 µg/mL (≈ 2.76 µM) and an MIC (S. aureus ATCC 33591; ATCC33591, passage 30, selection group DAP + TMP/SMX) of 4 µg/mL. It also gave an MIC (S. aureus ATCC 33591; ATCC33591, passage 30, selection group DAP + TR-700) of 2 µg/mL and an MIC (S. aureus ATCC 33591; ATCC33591, passage 30, selection group DAP + VAN) of 4 µg/mL.
